Data published in article PMC2729173 (Cancer research, 2009).
Counter-ions that a name gives are not always drawn. Like-named read-outs stand apart in the source and are kept apart here. Blank lines part the entries; values can stand above or below the molecule they belong to.

Experiments:
[1] = Topotecan lactone plasma protein binding; assay type: in vitro ADME, mice; conditions: mouse, unbound fraction of plasma topotecan lactone, mean ±SD
[2] = Intracerebral microdialysis of ventricular CSF; conditions: topotecan 4 mg/kg i.v., three-compartment model
BCRP = target: T1, BCRP (Homo sapiens, UniProt Q9UNQ0); assay type: cell-based; conditions: for intracellular topotecan lactone concentration: topotecan 500 ng/mL
T1 sequence (Q9UNQ0 1-655): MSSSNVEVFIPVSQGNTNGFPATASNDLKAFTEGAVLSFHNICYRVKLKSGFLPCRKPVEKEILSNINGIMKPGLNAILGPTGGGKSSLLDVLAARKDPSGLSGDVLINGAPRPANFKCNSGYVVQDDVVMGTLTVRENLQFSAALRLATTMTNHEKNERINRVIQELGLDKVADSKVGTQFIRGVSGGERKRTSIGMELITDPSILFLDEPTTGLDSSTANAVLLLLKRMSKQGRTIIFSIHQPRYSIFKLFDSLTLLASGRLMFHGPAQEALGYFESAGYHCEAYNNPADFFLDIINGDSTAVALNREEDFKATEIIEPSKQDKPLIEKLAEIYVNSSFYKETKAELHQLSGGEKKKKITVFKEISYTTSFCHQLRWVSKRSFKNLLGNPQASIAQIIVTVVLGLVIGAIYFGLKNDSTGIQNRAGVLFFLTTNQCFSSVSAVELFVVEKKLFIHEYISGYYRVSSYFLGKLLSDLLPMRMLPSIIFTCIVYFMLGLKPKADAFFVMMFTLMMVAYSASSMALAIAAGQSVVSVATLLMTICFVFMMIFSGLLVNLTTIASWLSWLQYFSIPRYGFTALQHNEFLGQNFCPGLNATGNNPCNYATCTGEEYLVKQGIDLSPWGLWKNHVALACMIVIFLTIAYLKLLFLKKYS

[3] = Intracerebral microdialysis of brain parenchymal ECF; conditions: topotecan 4 mg/kg i.v.; for ECF CLin-to-CLout ratio of unbound topotecan lactone: three-compartment model; for Kp: mouse, brain ECF (striatum microdialysate) vs plasma, intravenous, 4 mg/kg, ECF-to-plasma AUC ratio of unbound topotecan lactone (AUCu,ECF/AUCu,plasma), mean ±SD; for topotecan lactone ECF concentrations: Mdr1a/b−/− mice
[4] = rat; cited from earlier work

fraction unbound ([1]; FVB, wild-type mice): 0.301
fraction unbound ([1]; Bcrp1−/− mice): 0.309
fraction unbound ([1]; Mdr1a/b−/− mice): 0.292
fraction unbound ([1]; Mdr1a/b−/−Bcrp1−/− mice): 0.275
vCSF CLin-to-CLout ratio of unbound topotecan lactone ([2]; Bcrp1−/− mice): 1.59 ± 0.16
vCSF CLin-to-CLout ratio of unbound topotecan lactone ([2]; FVB wild-type mice): 3.01 ± 0.15
vCSF CLin-to-CLout ratio of unbound topotecan lactone ([2]; Mdr1a/b−/− mice): 2.57 ± 0.17
vCSF CLin-to-CLout ratio of unbound topotecan lactone ([2]; Mdr1a/b−/−Bcrp1−/− mice): 0.86 ± 0.04
intracellular topotecan lactone concentration (BCRP; Saos2-BCRP cells, 1-min incubation, pH 6): 0.043±0.005 ng/μg protein
intracellular topotecan lactone concentration (BCRP; Saos2-BCRP cells, 30-min incubation, pH 6): 0.026 ± 0.004 ng/µg
intracellular topotecan lactone concentration (BCRP; Saos2-pcDNA control cells, 1-min incubation, pH 6): 0.063±0.01 ng/μg protein
intracellular topotecan lactone concentration (BCRP; Saos2-pcDNA control cells, 30-min incubation, pH 6): 0.039 ± 0.003 ng/µg
ECF CLin-to-CLout ratio of unbound topotecan lactone ([3]; Bcrp1−/− mice): 0.42 ± 0.06
Kp ([3]; Bcrp1−/−, Bcrp1−/− mice): 0.42 ± 0.06
ECF CLin-to-CLout ratio of unbound topotecan lactone ([3]; FVB wild-type mice): 0.36 ± 0.06
Kp ([3]; FVB, Mdr1a/b−/−Bcrp1−/− mice): 0.89 ± 0.07
topotecan lactone ECF concentrations ([3]; listed as Topotecan lactone): below detectable limits
topotecan lactone ECF concentrations ([3]; listed as topotecan lactone): below the lower limit of detection
ECF CLin-to-CLout ratio of unbound topotecan lactone ([3]; Mdr1a/b−/−Bcrp1−/− mice): 0.89 ± 0.07
Kp ([3]; Mdr1a/b−/−Bcrp1−/−, Mdr1a/b−/−Bcrp1−/− mice): 0.88 ± 0.07
Structure (SMILES): CC[C@@]1(O)C(=O)OCc2c1cc1n(c2=O)Cc2cc3c(CN(C)C)c(O)ccc3nc2-1 [Topotecan, Topotecan hydrochloride]

Structure (SMILES): CCCNCCOc1ccc(NC(=O)c2c[nH]c3c2C(=O)CCC3)cc1F [CP-615,003]
accumulation in CSF relative to ECF [4]: 7 fold

topotecan carboxylate detection in cells (BCRP; pH 6): not detected
difference in intracellular topotecan carboxylate accumulation between Saos2-pcDNA and Saos2-BCRP cells (BCRP; pH 8, data not shown): no difference
Structure (SMILES): CCC(O)(C(=O)O)c1cc2n(c(=O)c1CO)Cc1cc3c(CN(C)C)c(O)ccc3nc1-2 (centres unmarked) [Topotecan carboxylate]
